Source: ChEMBL document CHEMBL1126278, “New neplanocin analogues. 1. Synthesis of 6'-modified neplanocin A derivatives as broad-spectrum antiviral agents” (J Med Chem, 1992)
Values after ≈ are worked out from the molar mass of the structure shown.

Key:
HeLa [1] = experiment: Inhibitory effect on replication of RNA virus coxsB-4 in HeLa cell line.; format: functional, cell-based; conditions: Homo sapiens
MT4 [2] = experiment: Inhibitory effect on replication of RNA virus HIV-2 in MT-4 cell line.; format: functional, cell-based; conditions: Homo sapiens
ESM [3] = experiment: Inhibitory effect on replication of DNA virus TK-HSV-1 (VMW 1837) on ESM cell line.; format: functional, cell-based
Vero [4] = experiment: Inhibitory effect on replication of RNA virus protein synthesis in Vero cell line.; format: functional, cell-based; conditions: Chlorocebus sabaeus
Vero [5] = experiment: Inhibitory effect on replication of RNA virus PV-3 in Vero cell line.; format: functional, cell-based; conditions: Chlorocebus sabaeus
HEL [6] = experiment: Inhibitory effect on replication of DNA virus TK-VZV (YSR) on HEL cell line.; format: functional, cell-based; conditions: Homo sapiens
Vero [7] = experiment: Inhibitory effect on replication of RNA virus RNA synthesis in Vero cell line.; format: functional, cell-based; conditions: Chlorocebus sabaeus
ESM [8] = experiment: Inhibitory effect on replication of DNA virus HSV-2 (G) in ESM cell line; format: functional, cell-based
Vero [9] = experiment: Inhibitory effect on replication of RNA virus reo-1 in Vero cell line.; format: functional, cell-based; conditions: Chlorocebus sabaeus
ESM [10] = experiment: Inhibitory effect on replication of DNA virus VV on ESM cell line.; format: functional, cell-based
MDCK [11] = experiment: Inhibitory effect on replication of RNA virus cell morphology in MDCK cell line.; format: functional, cell-based; conditions: Canis lupus familiaris
Vero [12] = experiment: Inhibitory effect on replication of RNA virus TV in Vero cell line.; format: functional, cell-based; conditions: Chlorocebus sabaeus
ESM [13] = experiment: Inhibitory effect on replication of RNA virus cell morphology in ESM cell line.; format: functional, cell-based
MT4 [14] = experiment: Inhibitory effect on replication of RNA virus cell growth in MT-4 cell line.; format: functional, cell-based; conditions: Homo sapiens
ESM [15] = experiment: Inhibitory effect on replication of DNA virus Cell morphology on ESM cell line; format: functional, cell-based
[16] = Inhibitory effect on replication of DNA virus HSV-2 (G) in PRK cell line.; format: functional, cell-based, herpes simplex virus; conditions: Human alphaherpesvirus 1, PRK
Vero [17] = experiment: Inhibitory effect on replication of RNA virus cell morphology in Vero cell line.; format: functional, cell-based; conditions: Chlorocebus sabaeus
MT4 [18] = experiment: Inhibitory effect on replication of RNA virus HIV-1 in MT-4 cell line.; format: functional, cell-based; conditions: Homo sapiens
ESM [19] = experiment: Inhibitory effect on replication of RNA virus VSV in ESM cell line.; format: functional, cell-based
Vero [20] = experiment: Inhibitory effect on replication of RNA virus JV in Vero cell line.; format: functional, cell-based; conditions: Chlorocebus sabaeus
[21] = Inhibitory effect on replication of DNA virus HSV-1 (KOS) in PRK cell line.; format: functional, cell-based; conditions: Oryctolagus cuniculus
HEL [22] = experiment: Inhibitory effect on replication of DNA virus TK-VZV (07-1) on HEL cell line.; format: functional, cell-based; conditions: Homo sapiens
Vero [23] = experiment: Inhibitory effect on replication of RNA virus SFV in Vero cell line; format: functional, cell-based; conditions: Chlorocebus sabaeus
PRK [24] = experiment: Inhibitory effect on replication of DNA virus VV on PRK cell line.; format: functional, cell-based; conditions: Oryctolagus cuniculus
Vero [25] = experiment: Inhibitory effect on replication of RNA virus coxsB-4 in Vero cell line; format: functional, cell-based; conditions: Chlorocebus sabaeus
ESM [26] = experiment: Inhibitory effect on replication of DNA virus TK-HSV-1 (B2006) on ESM cell line.; format: functional, cell-based
HEL [27] = experiment: Inhibitory effect on replication of DNA virus CMV (Davis) on HEL cell line.; format: functional, cell-based; conditions: Homo sapiens
HEL [28] = experiment: Inhibitory effect on replication of DNA virus CMV (AD-169) on HEL cell line.; format: functional, cell-based; conditions: Homo sapiens
PRK [29] = experiment: Inhibitory effect on replication of RNA virus cell morphology in PRK cell line.; format: functional, cell-based; conditions: Oryctolagus cuniculus
Vero [30] = experiment: Inhibitory effect on replication of RNA virus SV in Vero cell line.; format: functional, cell-based; conditions: Chlorocebus sabaeus
ESM [31] = experiment: Inhibitory effect on replication of DNA virus HSV-1 (KOS) in ESM cell line; format: functional, cell-based
PRK [32] = experiment: Inhibitory effect on replication of RNA virus VSV in PRK cell line.; format: functional, cell-based; conditions: Oryctolagus cuniculus
HEL [33] = experiment: Inhibitory effect on replication of DNA virus VZV (Oka) on HEL cell line.; format: functional, cell-based; conditions: Homo sapiens
HEL [34] = experiment: Inhibitory effect on replication of DNA virus VZV (YS) on HEL cell line.; format: functional, cell-based; conditions: Homo sapiens
HEL [35] = experiment: Inhibitory effect on replication of DNA virus Cell growth on HEL cell line.; format: functional, cell-based; conditions: Homo sapiens
HeLa [36] = experiment: Inhibitory effect on replication of RNA virus cell morphology in HeLa cell line.; format: functional, cell-based; conditions: Homo sapiens
HeLa [37] = experiment: cells; conditions: Homo sapiens
PRK [38] = experiment: Inhibitory effect on replication of DNA virus Cell morphology on PRK cell line; format: functional, cell-based; conditions: Oryctolagus cuniculus
MDCK [39] = experiment: cells; conditions: Canis lupus familiaris
MDCK [40] = experiment: cells; conditions: Canis lupus familiaris; remark: listed apart in the source

Compound `C[C@@H](O)C1=C[C@@H](n2cnc3c(N)ncnc32)[C@H](O)[C@@H]1O` has an IC50 (HeLa [1]) greater than 400 µg/mL, an IC50 (MT4 [2]) greater than 0.03 µg/mL and an IC50 (ESM [3]) of 70 µg/mL (≈ 252 µM). It also gave an IC50 (Vero [4]) of 56 µg/mL (≈ 202 µM), an IC50 (Vero [5]) of 0.1 µg/mL (≈ 0.361 µM) and an IC50 (HEL [6]) of 6 µg/mL (≈ 21.6 µM). For the same compound, the IC50 (Vero [7]) was 0.1 µg/mL (≈ 0.361 µM), the IC50 (ESM [8]) was greater than 400 µg/mL and the IC50 (Vero [9]) was 0.04 µg/mL (≈ 0.144 µM). It also gave an IC50 (ESM [10]) of 0.04 µg/mL (≈ 0.144 µM), an IC50 (MDCK [11]) greater than 100 µg/mL and an IC50 (Vero [12]) of 0.5 µg/mL (≈ 1.8 µM). It also gave an IC50 (ESM [13]) greater than 400 µg/mL, an IC50 (MT4 [14]) of 0.09 µg/mL (≈ 0.325 µM) and an IC50 (ESM [15]) greater than 400 µg/mL. The IC50 [16] was greater than 200 µg/mL, the IC50 (Vero [17]) was greater than 400 µg/mL and the IC50 (MT4 [18]) was greater than 0.03 µg/mL. For the same compound, the IC50 (ESM [19]) was 0.07 µg/mL (≈ 0.252 µM), the IC50 (Vero [20]) was 0.4 µg/mL (≈ 1.44 µM) and the IC50 [21] was greater than 400 µg/mL. The IC50 (HEL [22]) was 38 µg/mL (≈ 137 µM), the IC50 (Vero [23]) was greater than 200 µg/mL and the IC50 (PRK [24]) was 0.1 µg/mL (≈ 0.361 µM). It also gave an IC50 (Vero [25]) greater than 200 µg/mL, an IC50 (ESM [26]) of 70 µg/mL (≈ 252 µM) and an IC50 (HEL [27]) of 0.03 µg/mL (≈ 0.108 µM). For the same compound, the IC50 (HEL [28]) was 0.06 µg/mL (≈ 0.216 µM), the IC50 (PRK [29]) was greater than 400 µg/mL and the IC50 (Vero [30]) was 4 µg/mL (≈ 14.4 µM). The IC50 (ESM [31]) was greater than 400 µg/mL, the IC50 (PRK [32]) was 0.1 µg/mL (≈ 0.361 µM) and the IC50 (HEL [33]) was 21 µg/mL (≈ 75.7 µM). The IC50 (HEL [34]) was 65 µg/mL (≈ 234 µM), the IC50 (HEL [35]) was greater than 200 µg/mL and the IC50 (HeLa [36]) was greater than 400 µg/mL. The IC50 (HeLa [37]) was greater than 400 µg/mL, the IC50 (PRK [38]) was greater than 400 µg/mL and the IC50 (MDCK [39]) was greater than 100 µg/mL. The IC50 (MDCK [40]) was greater than 100 µg/mL.
